Test results reported in patent US20090239748A1, “Fungicidal Mixtures Based on 2,5-Disubstituted N-Biphenylpyrazolcarboxamides” (BASF Aktiengesellschaft, priority 2005, published 2009).

Columns and labels:
[1] = test system: Pyrenophora [syn. Drechslera] teres; assay: Activity against net blotch of barley caused by Pyrenophora teres, 1 day protective application; format: in vivo; details: 0.25 mg/l, read after 6 days
Method: The active compounds, separately or jointly, were prepared as a stock solution comprising 25 mg of active compound which was made up to 10 ml using a mixture of acetone and/or dimethyl sulfoxide and the emulsifier Uniperol® EL (wetting agent having an emulsifying and dispersing action based on ethoxylated alkylphenols) in a ratio by volume of solvent/emulsifier of 99:1. The mixture was then made up to 100 ml with water. This stock solution was diluted with the solvent/emulsifier/water mixture described to give the concentration of active compound stated below. […]
(§1) The visually determined percentages of infected leaf areas were converted into efficacies in % of the untreated control.
(§2) The efficacy (E) is calculated as follows using Abbot's formula: […]
(§3) The expected efficacies of active compound mixtures were determined using Colby's formula [R. S. Colby, “Calculating synergistic and antagonistic responses of herbicide combinations”, Weeds 15, 20-22 (1967)] and compared with the observed efficacies. […]
Leaves of potted barley seedlings were sprayed to runoff point with an aqueous suspension having the active compound concentration stated below. […] After 6 days, the extent of the development of the disease was determined visually in % infection of the entire leaf area.

[2] = test system: Phakopsora pachyrhizi; assay: Curative activity against soybean rust caused by Phakopsora pachyrhizi; format: in vivo; details: 0.25 mg/l, curative (sprayed 2 days after inoculation), 14 days
Method: (§4) The active compounds, separately or jointly, were prepared as a stock solution comprising 25 mg of active compound which was made up to 10 ml using a mixture of acetone and/or dimethyl sulfoxide and the emulsifier Uniperol® EL (wetting agent having an emulsifying and dispersing action based on ethoxylated alkylphenols) in a ratio by volume of solvent/emulsifier of 99:1. The mixture was then made up to 100 ml with water. This stock solution was diluted with the solvent/emulsifier/water mixture described to give the concentration of active compound stated below.
(§5) Alternatively, the active compounds epoxiconazole and pyraclostrobin were used as a commercial formulation and diluted with water to the stated active compound concentrations.
as §1, §2, §3
Leaves of potted soybean seedlings of the cultivar “Oxford” were inoculated with a spore suspension of soybean rust (Phakopsora pachyrhizi). […] The extent of the rust fungus development on the leaves was then determined.

[3] = test system: Puccinia recondita; assay: Protective activity against Puccinia recondita on wheat (brown rust of wheat); format: in vivo
Method: as §4, §5, §1, §2
α corresponds to the fungicidal infection of the treated plants in % and β corresponds to the fungicidal infection of the untreated (control) plants in %
An efficacy of 0 means that the infection level of the treated plants corresponds to that of the untreated control plants; an efficacy of 100 means that the treated plants were not infected.
(§6) The expected efficacies of active compound mixtures were determined using Colby's formula [R. S. Colby, “Calculating synergistic and antagonistic responses of herbicide combinations”, Weeds 15, 20-22 (1967)] and compared with the observed efficacies.
(§7) E=x+y−x·y/100 • E expected efficacy, expressed in % of the untreated control, when using the mixture of the active compounds A and B at the concentrations a and b; • x efficacy, expressed in % of the untreated control, when using the active compound A at the concentration a; • y efficacy, expressed in % of the untreated control, when using the active compound B at the concentration b.
Leaves of potted wheat seedlings of the cultivar “Kanzler” were sprayed to runoff point with an aqueous suspension having the active compound concentration stated below. The next day, the treated plants were inoculated with a spore suspension of brown rust of wheat (Puccinia recondita). The plants were then placed in a chamber with high atmospheric humidity (90 to 95%) at 20 to 22° C. for 24 hours. During this time, the spores germinated and the germ tubes penetrated into the leaf tissue. The next day, the test plants were returned to the greenhouse and cultivated at temperatures between 20 and 22° C. and at 65 to 70% relative atmospheric humidity for a further 7 days. The extent of the rust fungus development on the leaves was then determined visually.

[4] = test system: Septoria tritici; assay: Activity against the Septoria leaf spot pathogen Septoria tritici in the microtiter test; format: cell-based; details: microtiter plate, 405 nm, day 7
Method: as §6, §7
For this test, the active compounds were formulated separately as a stock solution having a concentration of 10 000 ppm in dimethyl sulfoxide.
The stock solution was mixed according to the ratio, pipetted into a microtiter plate (MTP) and diluted with an aqueous malt-based fungus nutrient medium to the stated active compound concentration. An aqueous spore suspension of Septoria tritici was then added. […] Using an absorbtion photometer, the MTPs were measured at 405 nm on day 7 after the inoculation.
The measured parameters were compared to the growth of the active compound-free control variant (100%) and the fungus- and active compound-free blank value to determine the relative growth in % of the pathogens in the individual active compounds.

[5] = test system: Botrytis cinerea; assay: Activity against gray mold on bell pepper leaves caused by Botrytis cinerea, 1 day protective application; format: in vivo; details: sprayed 1 day before inoculation, read after 5 days
Method: as §4, §1, §2, §3
Bell pepper seedlings of the cultivar “Neusiedler Ideal Elite” were, after 2-3 leaves were well developed, sprayed to runoff point with an aqueous suspension having the active compound concentration stated below. […] After 5 days, the extent of the fungal infection on the leaves could be determined visually in %.

Structure (SMILES): COC(=O)N(OC)c1ccccc1COc1ccn(-c2ccc(Cl)cc2)n1 [pyraclostrobin, methyl N-{2-[1-(4-chlorophenyl)-1H-pyrazol-3-yloxymethyl]phenyl}(N-methoxy)carbamate, reference compound]
- Observed effect (% infection) [1]: 33%
- Observed effect (% infection) [2]: 29%

Structure (SMILES): Cn1cc(C(=O)Nc2ccccc2-c2cc(Cl)ccc2Cl)c(C(F)F)n1 [No. I.4, N-(2′,5′-dichlorobiphenyl-2-yl)-1-methyl-3-difluoromethyl-1H-pyrazole-4-carboxamide]
- melting point: 130 to 132 °C

Structure (SMILES): Fc1ccc([C@]2(Cn3cncn3)O[C@H]2c2ccccc2Cl)cc1 (racemic) [epoxiconazole, (2RS,3SR)-1-[3-(2-chlorophenyl)-2,3-epoxy-2-(4-fluorophenyl)propyl]-1H-1,2,4-triazole, reference compound]
- Observed effect (% infection) ([3]; 0.25 mg/l): 5%

Structure (SMILES): Cn1cc(C(=O)Nc2ccccc2-c2cc(F)ccc2F)c(C(F)F)n1 [No. I.2, N-(2′,5′-difluorobiphenyl-2-yl)-1-methyl-3-difluoromethyl-1H-pyrazole-4-carboxamide]
- Observed effect (% infection) [1]: 0%
- Observed effect (% infection) ([3]; 1 mg/l): 52%
- melting point: 139 to 141 °C

Structure (SMILES): COc1cc(C)c(C(=O)c2c(OC)ccc(Br)c2C)c(OC)c1OC [metrafenone, 3′-bromo-2,3,4,6′-tetramethoxy-2′,6-dimethylbenzophenone, reference compound]
- Observed effect (% infection) ([3]; 4 mg/l): 0%

Structure (SMILES): COc1ccc(C(=CC(=O)N2CCOCC2)c2ccc(Cl)cc2)cc1OC [dimethomorph, 3-(4-chlorophenyl)-3-(3,4-dimethoxyphenyl)-1-morpholin-4-yl-propenone, reference compound]
- Observed effect (% infection) ([4]; 4 mg/l): 20%

Structure (SMILES): Cn1cc(C(=O)Nc2ccccc2-c2cc(Cl)ccc2Cl)c(C(F)(F)F)n1 [No. I.5, N-(2′,5′-dichlorobiphenyl-2-yl)-1-methyl-3-trifluoromethyl-1H-pyrazole-4-carboxamide]
- melting point: 131 to 135 °C

Structure (SMILES): Cn1cc(C(=O)Nc2ccccc2-c2cc(F)ccc2F)c(C(F)(F)F)n1 [No. I.1, N-(ortho-(2,5-difluorophenyl)phenyl)-1-methyl-3-trifluoromethylpyrazole-4-carboxamide]
- Observed effect (% infection) ([5]; 1 mg/l): 0%
- Observed effect (% infection) ([4]; 1 mg/l): 0%
- Observed effect (% infection) [2]: 29%
- Observed effect (% infection) ([3]; 1 mg/l): 5%

Structure (SMILES): CC1CCN(c2c(-c3c(F)cc(F)cc3F)c(Cl)nc3ncnn23)CC1 [5-chloro-7-(4-methylpiperidin-1-yl)-6-(2,4,6-trifluorophenyl)-[1,2,4]triazolo[1,5-a]-pyrimidine, reference compound]
- Observed effect (% infection) ([5]; 4 mg/l): 40%
